From US20130059879A1, “Small Molecule Inhibitors of PFKFB3 and Glycolytic Flux and Their Methods of Use as Anti-Cancer Therapeutics” (UNIVERSITY OF LOUISVILLE RESEARCH FOUNDATION, INC., priority 2010, published 2013)
Each block holds one molecule with its values, some of them ahead of it.

Key:
Pharmacokinetics in rats = type: in vivo; settings: male Sprague Dawley rats
Protocol: (§1) The pharmacokinetic parameters for several compounds were determined in mice following IV (intravenous), IP (intraperitoneal), or PO (per os) administration, as well as in rats and dogs. A typical study design includes six Balbc male mice 7 to 8 weeks old. For instance, a dose of 10 mg/kg was administered IV using a 5% DMS0/90% Captisol (20% in water) solution or other pharmaceutically acceptable parenteral and oral formulations. Blood samples were collected at different intervals. Plasma samples were extracted and analyzed using an LC-MS/MS method. Similar protocols were used for the rats (Sprague Dawley rats) or dogs (beagles) PK studies; in the case of dogs PK studies, the number of animals per group was three.
(§2) PFK-065 was dosed at 10 mg/kg in male Balbc mice; PFK-095 was dosed at 10 mg/kg in male Sprague Dawley rats; and PFK-112 dosed at 6 mg/kg in male beagle dogs.

Jurkat = assay: Cell proliferation, MTT assay, 72 hours; type: cell-based; settings: Homo sapiens
Protocol: (§3) The ability of the compounds described herein to kill or inhibit the proliferation of cancer cells was measured using either the MTT assay, or the Alamar Blue assay, or the Cell Titer Glow® assay using 48 or 72 hours exposure. […] The procedures are briefly described below. Cells of the desired tumor cell line were plated at 2×10^5 cells/ml in 96 well plates. Twice the indicated concentrations of the compounds of the invention were added to cells the following day in an equal volume of media. 72 hours later, cells were lysed and subjected to ATP determination using the CellTiter Glo-Luminescent Cell Viability Assay kit (Promega, Madison, Wis.). Experiments were done in triplicate. When using the MTT assay or the Alamar blue assay, the experimental conditions are essentially similar; at the end of the incubation period, 20 microliters of the MTT solution is added per well and the samples are incubated for an additional four hours, rinsed, and the absorbance at 570 nm measured. […] Table 2 lists the IC50 values for the compounds of the invention in several cell lines including Jurkat, Calu-6, NCI-H82, U937, HCT-116, and MDA-MB-231 cancer cell lines.

HT-29 = assay: Cell proliferation, MTT assay, 72 hours; type: cell-based; settings: Homo sapiens, HT-29, MTT assay
Protocol: as §3

DU145 = assay: Cell proliferation, MTT assay, 72 hours; type: cell-based; settings: Homo sapiens, DU-145
Protocol: as §3

HCT-116 = assay: Cell proliferation, MTT assay, 72 hours; type: cell-based; settings: Homo sapiens, HCT-116, MTT assay
Protocol: as §3

H209 = assay: Cell proliferation, MTT assay, 72 hours; type: cell-based; settings: Homo sapiens, NCI-H209
Protocol: as §3

Hep G2 = assay: Cell proliferation, MTT assay, 72 hours; type: cell-based; settings: Homo sapiens, HepG2
Protocol: as §3

NCI-H82 = assay: Cell proliferation, MTT assay, 72 hours; type: cell-based; settings: Homo sapiens
Protocol: as §3

MDA-MB-231 = assay: Cell proliferation, MTT assay, 72 hours; type: cell-based; settings: Homo sapiens, MDA-MB-231, MTT assay
Protocol: as §3

Hela = assay: Cell proliferation, MTT assay, 72 hours; type: cell-based; settings: Homo sapiens
Protocol: as §3

PC3 = assay: Cell proliferation, MTT assay, 72 hours; type: cell-based; settings: Homo sapiens, PC-3
Protocol: as §3

K562 = assay: Cell proliferation, MTT assay, 72 hours; type: cell-based; settings: Homo sapiens
Protocol: as §3

U937 = assay: Cell proliferation, MTT assay, 72 hours; type: cell-based; settings: Homo sapiens, U-937
Protocol: as §3

Calu-6 = assay: Cell proliferation, MTT assay, 72 hours; type: cell-based; settings: Homo sapiens, Calu-6, MTT assay
Protocol: as §3

[1] = Cell permeability in MDR1-MDCK monolayers; type: in vitro ADME; settings: dog, MDR1-MDCK cells, pH 7.4
Text: The determination of the permeability in Caco2 or MDR1-MDCK cells is widely used when screening compounds to assess cell permeability, intestinal drug transport and predict absorption rates and to ascertain if a compound might be a Pgp substrate and have cross the blood brain barrier. […] Comparison of the apical to basal (A-B) and basal to apical (B-A) values show if a compound is actively effluxed out the cells and if it is a Pgp substrate. […] Briefly, cell permeability and transport mechanisms in Caco-2 and MDR1-MDCK monolayers experiments were performed in triplicate in the apical-to-basolateral and basolateral-to-apical direction using Transwell wells containing either Caco-2 or MDR1-MDCK monolayers. A modified Hanks buffer pH 7.4 was used in both reservoir and receiver wells with the addition of 1% BSA in the receiver side. Confluent monolayers were used and their integrity was verified using reference compounds (Atenolol as a low permeability reference compound and Propanolol as a high permeability reference compound). A sample in the basolateral and apical sides was taken after 2 hours and the concentration measured by LC/MS-MS.

Pharmacokinetics in dogs = type: in vivo; settings: male beagle dogs
Protocol: as §1, §2

U87MG = assay: Cell proliferation, MTT assay, 48 hours; type: cell-based; settings: Homo sapiens, U-87 MG
Protocol: as §3

BX-PC-3 = assay: Cell proliferation, MTT assay, 48 hours; type: cell-based; settings: Homo sapiens, BXPC-3, BX-PC-3, MTT assay
Protocol: as §3

CT26 = assay: Cell proliferation, MTT assay, 48 hours; type: cell-based; settings: Mus musculus
Protocol: as §3

MiaPaca = assay: Cell proliferation, MTT assay, 48 hours; type: cell-based; settings: Homo sapiens, MIA PaCa-2
Protocol: as §3

BT474 = assay: Cell proliferation, MTT assay, 48 hours; type: cell-based; settings: Homo sapiens, BT-474
Protocol: as §3

A549 = assay: Cell proliferation, MTT assay, 48 hours; type: cell-based; settings: Homo sapiens
Protocol: as §3

H22 = assay: Cell proliferation, MTT assay, 48 hours; type: cell-based; settings: Mus musculus
Protocol: as §3

LnCap = assay: Cell proliferation, MTT assay, 48 hours; type: cell-based; settings: Homo sapiens
Protocol: as §3

Cmax (Pharmacokinetics in rats; IV 10 mg/kg): 16.932 µg/mL
T1/2b (Pharmacokinetics in rats; IV 10 mg/kg): 5.5 h
Vd (Pharmacokinetics in rats; IV 10 mg/kg): 2.5 L/kg
% F (from PO group) (Pharmacokinetics in rats; oral bioavailability, PO 10 mg/kg): 38%
AUC(0-inf) (Pharmacokinetics in rats; rat, plasma, IV 10 mg/kg): 1.29 µg·h/mL
IC50 (Jurkat): 4.65 µM
IC50 (HT-29): 0.45 µM
IC50 (DU145): 0.94 µM
IC50 (HCT-116): 0.51 µM
IC50 (H209): 0.19 µM
IC50 (NCI-H82): 0.18 µM
IC50 (MDA-MB-231): 24.9 µM
IC50 (Hela): 9.1 µM
IC50 (PC3): 0.95 µM
IC50 (K562): 0.21 µM
IC50 (U937): 0.05 µM
IC50 (Calu-6): 0.14 µM
SMILES: O=C(c1ccncc1)c1cc2c(ccc3ccccc32)[nH]1 [ACT-PFK-095, (3H-Benzo[e]indol-2-yl)-pyridin-4-yl-methanone]
IC50 (Hep G2): 5.5 µM

Papp A→B at 2 h ([1]; apical to basal): 78 nm/s
Papp B→A at 2 h ([1]; basal to apical): 173 nm/s
T1/2b (Pharmacokinetics in dogs; IV 6 mg/kg): 5.8 h
AUC(0-inf) (Pharmacokinetics in dogs; dog, plasma, IV 6 mg/kg): 5.07 µg·h/mL
Cmax (Pharmacokinetics in dogs; dog, plasma, IV 6 mg/kg): 5.07 µg/mL
Vd (Pharmacokinetics in dogs; dog, plasma, IV 6 mg/kg): 1.8 L/kg
% F (from PO group) (Pharmacokinetics in dogs; oral bioavailability, PO 24 mg/kg vs IV 6 mg/kg): 95%
IC50 (U87MG): 3.79 µM
IC50 (BX-PC-3): 0.135 µM
IC50 (CT26): 1.95 µM
IC50 (MiaPaca): 0.154 µM
IC50 (BT474): 1.37 µM
IC50 (A549): 0.822 µM
IC50 (LnCap): 1.03 µM
SMILES: Nc1ccc(C(=O)c2cc3c(ccc4ccccc43)[nH]2)cc1 [ACT-PFK-112, (4-Amino-phenyl)-(3H-benzo[e]indol-2-yl)-methanone]
IC50 (H22): 0.513 µM
